Paper PMC9237417, “HupZ, a Unique Heme-Binding Protein, Enhances Group A Streptococcus Fitness During Mucosal Colonization” (Frontiers in Cellular and Infection Microbiology, 2022)

Assays:
MBP-HupZ = target: T1, MBP-HupZ (Streptococcus pyogenes, UniProt Q9A0B9); experiment: UV-VIS Soret shift of heme-loaded protein; assay type: binding; conditions: holo protein (heme b bound); 1.6 mM imidazole as axial ligand of the heme iron; pH 7.4
T1 construct: gene SPy_0844; N-terminal MBP fusion kept (pKV135); E. coli BL21(DE3); monomer on native PAGE
T1 sequence (Q9A0B9 entry or part of it): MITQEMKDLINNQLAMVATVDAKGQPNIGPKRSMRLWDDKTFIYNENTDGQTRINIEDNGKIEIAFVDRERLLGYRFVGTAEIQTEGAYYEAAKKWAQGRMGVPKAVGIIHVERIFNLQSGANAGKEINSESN

tag-less HupZ = target: T2, tag-less HupZ (Streptococcus pyogenes, UniProt Q9A0B9); experiment: UV-VIS Soret shift of heme-loaded protein; assay type: binding; conditions: holo protein (heme b bound); 1.6 mM imidazole as axial ligand of the heme iron; pH 7.4
T2 construct: gene SPy_0844; full-length HupZ from His-MBP-HupZ, tag cut by TEV protease leaving a serine residue; expressed in E. coli; 15 kD on SDS-PAGE
T2 sequence (Q9A0B9 entry or part of it): as above

**Q.** With c1c[nH]cn1 [imidazole] as the molecule, how does the “UV-VIS Soret shift of heme-loaded protein” value (MBP-HupZ) read?
**A.** exogenous imidazole can coordinate the iron in holo tag-less and MBP-HupZ

**Q.** And the “UV-VIS Soret shift of heme-loaded protein” value (tag-less HupZ)?
**A.** exogenous imidazole can coordinate the iron in holo tag-less and MBP-HupZ
